This test concerns serotonin uptake in rat whole brain and hypothalamic synaptosomes. Briefly: [3H]-Serotonin Uptake in Rat Whole Brain and Hypothalamic Synaptosomes. The test is classed as biochemical, rat (male CR Wistar). The settings on record: rat whole brain or hypothalamic synaptosomes; 50 nM [3H]-5-hydroxytryptamine; 37° C., 5 minutes; pH 7.4; log-probit analysis; read-out: Inhibition of Serotonin Uptake (IC50).

The structures appear in SMILES notation. Counter-ions that a name gives are not always drawn.

As a reminder, the IC50 is the concentration that inhibits the measured activity by half.

Description: [^3 H]-Serotonin Uptake in Rat Whole Brain
A. Animals: Male CR Wistar rats (100-125 g).
1. Krebs-Henseleit Bicarbonate Buffer, pH 7.4 (KHBB):
Make a 1 liter batch, containing the following salts.
Potassium chloride 0.35 4.7
Calcium chloride 0.14 1.3
Aerate for 60 min. with 95% oxygen/5% carbon dioxide,
2. 0.32 M Sucrose: 21.9 g of sucrose, bring to 200 ml.
3. Serotonin creatinine sulfate 0.1 mM stock solution is
made up in 0.01 N hydrochloric acid. This is used to
dilute the specific activity of radiolabeled
[H^3 ]-5-hydroxytryptamine (serotonin).
4. 5-[1,2-^3 H(N)]-Hydroxytryptamine creatinine sulfate
(Serotonin), specific activity 20-30 Ci/mmol is used.
The final desired concentration of
[H^3 ]-5-hydroxytryptamine in the assay is 50 nM. The
dilution factor is 0.8. Therefore, the KHBB is made up to
contain 62.5 nM [H^3 ]-5-hydroxy-tryptamine.
A) 56.1 μl of 0.1 mM 5-hydroxytryptamine
*B) 0.64 nmole of 5-hydroxytryptamine
5. For most assays, a 1 mM stock solution of the test com-
pound is made up in suitable solvent and serially diluted
such that the final concentration in the assay ranges from
2 × 10^-8 to 2 × 10^-5 M. Seven concentrations
for each assay. Higher or lower concentrations may be
used depending on the potency of the compound.
Male Wistar rats are decapitated and the brain rapidly
removed. […]
scintillation vials, and counted in 10 ml of Liquiscint […]

As for `CN(N)CCC(Oc1ccc(C(F)(F)F)cc1)c1ccccc1` (stereo not shown) [2-Methyl-2-[3-phenyl-3-[(4-trifluoromethyl)phenoxy]propyl]hydrazine maleate], the IC50 came to 1.23 µM.

These data come from patent US5268468A, “N-nitrosophenoxybenzenepropanamine and N-1-chloroethyl carbamate intermediates” (Hoechst-Roussel Pharmaceuticals Incorporated, priority 1993, dated 1993).
